Results published in US7411093B2, “Aminocycloalkanes as DPP-IV inhibitors” (Hoffman-La Roche Inc., priority 2004, dated 2008).

target: T1, human DPP-IV (Homo sapiens, UniProt P27487); assay: DPP-IV activity assay (fluorogenic or colorimetric substrate); format: biochemical; settings: natural human DPP-IV from human plasma pool or recombinant human DPP-IV; 37° C., pH 7.8
T1 construct: made in house; host or cells: Pichia pastoris (secreted, purified from culture medium)
Procedure: Activity of DPP-IV inhibitors are tested with natural human DPP-IV derived from a human plasma pool or with recombinant human DPP-IV. Human citrate plasma from different donors is pooled, filtered through a 0.2 micron membrane under sterile conditions and aliquots of 1 ml are shock frozen and stored at −120° C. until used. In the colorimetric DPP-IV assay 5 to 10 μl human plasma and in the fluorometric assay 1.0 μl of human plasma in a total assay volume of 100 μl is used as an enzyme source. The cDNA of the human DPP-IV sequence of amino acid 31- to 766, restricted for the N-terminus and the transmembrane domain, is cloned into Pichia pastoris. Human DPP-IV is expressed and purified from the culture medium using conventional column chromatography including size exclusion and anion and cation chromatography. The purity of the final enzyme preparation of Coomassie blue SDS-PAGE is >95%. In the colorimetric DPP-IV assay 20 ng rec.-h DPP-IV and in the fluorometric assay 2 ng rec-h DPP-IV in a total assay volume of 100 μl is used as an enzyme source.
In the fluorogenic assay Ala-Pro-7-amido-4-trifluoromethylcoumarin (Calbiochem No 125510) is used as a substrate. A 20 mM stock solution in 10% DMF/H2O is stored at −20° C. until use. In IC50 determinations a final substrate concentration of 50 μM is used. In assays to determine kinetic parameters as Km, Vmax, Ki, the substrate concentration is varied between 10 μM and 500 μM.
In the colorimetric assay H-Ala-Pro-pNA.HCl (Bachem L-11115) is used as a substrate. A 10 mM stock solution in 10% MeOH/H2O is stored at −20° C. until use. In IC50 determinations a final substrate concentration of 200 μM is used. In assays to determine kinetic parameters as Km, Vmax, Ki, the substrate concentration is varied between 100 μM and 2000 μM.
Fluorescence is detected in a Perkin Elmer Luminescence Spectrometer LS 50B at an excitation wavelength of 400 nm and an emission wavelength of 505 nm continuously every 15 seconds for 10 to 30 minutes. Initial rate constants are calculated by best fit linear regression.
The absorption of pNA liberated from the colorimetric substrate is detected in a Packard SpectraCount at 405 nm continuously every 2 minutes for 30 to 120 minutes. Initial rate constants are calculated by best fit linear regression.
DPP-IV activity assays are performed in 96 well plates at 37° C. in a total assay volume of 100 μl. The assay buffer consists of 50 mM Tris/HCl, pH 7.8 containing 0.1 mg/ml BSA and 100 mM NaCl. […]
IC50 determinations of test compounds are calculated by non-linear best fit regression of the DPP-IV inhibition of at least 5 different compound concentrations. Kinetic parameters of the enzyme reaction are calculated at least 5 different substrate concentrations and at least 5 different test compound concentrations.

T1 sequence (P27487 31-766): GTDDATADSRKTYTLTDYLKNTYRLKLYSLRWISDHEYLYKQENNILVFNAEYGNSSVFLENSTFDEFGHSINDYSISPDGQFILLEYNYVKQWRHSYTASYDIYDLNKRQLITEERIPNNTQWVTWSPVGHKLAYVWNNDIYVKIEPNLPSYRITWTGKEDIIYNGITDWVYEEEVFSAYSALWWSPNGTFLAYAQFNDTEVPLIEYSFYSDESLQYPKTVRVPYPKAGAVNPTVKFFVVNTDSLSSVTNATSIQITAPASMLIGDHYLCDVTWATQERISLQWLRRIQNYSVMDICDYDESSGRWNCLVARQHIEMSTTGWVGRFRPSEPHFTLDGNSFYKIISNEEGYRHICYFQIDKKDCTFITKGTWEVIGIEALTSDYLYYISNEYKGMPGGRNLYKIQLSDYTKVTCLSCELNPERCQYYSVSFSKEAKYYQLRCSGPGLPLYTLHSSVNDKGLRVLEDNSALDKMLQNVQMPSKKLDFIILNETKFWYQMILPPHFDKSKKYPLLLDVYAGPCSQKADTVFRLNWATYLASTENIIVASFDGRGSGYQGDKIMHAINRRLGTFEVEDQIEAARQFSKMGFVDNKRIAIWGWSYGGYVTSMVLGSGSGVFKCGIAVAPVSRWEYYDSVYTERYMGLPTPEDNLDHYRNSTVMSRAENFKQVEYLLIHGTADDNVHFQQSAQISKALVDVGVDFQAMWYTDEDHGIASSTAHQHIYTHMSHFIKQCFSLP

| Compound | IC50 [nM] |
| --- | --- |
| N[C@@H]1CCCC[C@@H]1c1cc(Cl)ccc1Cl (relative stereo) [Example 7, (cis)-2-(2,5-Dichloro-phenyl)-cyclohexylamine] | 130 |
| Cc1ccc(C)c([C@@H]2CCCC[C@H]2N)c1 (relative stereo) [Example 18, (trans)-2-(2,5-Dimethyl-phenyl)-cyclohexylamine] | 160 |
| N[C@@H]1CCCCC[C@H]1c1cc(Cl)ccc1Cl (relative stereo) [Example 24, (trans)-2-(2,5-Dichloro-phenyl)-cycloheptylamine] | 720 |
| CC1=CC(=O)N([C@@H]2CCCC[C@H]2N)C1 (relative stereo) [Example 30, trans-1-(2-Amino-cyclohexyl)-4-methyl-1,5-dihydro-pyrrol-2-one] | 730 |
